This passage reports IC50 results from US20220296595A1, “CDK INHIBITORS” (QILU REGOR THERAPEUTICS INC., priority 2019, published 2022).

Structures are written as SMILES. Where two headings read alike, the source gives them in different places.

In assay [1] the target is T1, CDK6/CyclinD3 (Homo sapiens, UniProt Q00534).
T1 construct: purchased Carna 04-107
As to the kind of experiment: Assay for inhibition of CDK6/CyclinD3 (Caliper microfluidic kinase assay). Type of assay: biochemical. The conditions noted are these: CDK6/CyclinD3, 300 μM ATP. The procedure, abridged:
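IC50s came from four-parameter dose-response fits of microfluidic substrate/product separation data. Reactions held 2 nM CDK6/CyclinD3, 300 μM ATP and 1 μM 5-FAM peptide FL-34 in pH 7.5 HEPES/MgCl2 buffer, ran 3 hours at room temperature, then were quenched with EDTA.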

Assay [2] has as its target T2, CDK4/CyclinD1 (Homo sapiens, UniProt P11802).
T2 construct: purchased Thermofisher PR8064A
As to the kind of experiment: Assay for inhibition of CDK4/CyclinD1 (Caliper microfluidic kinase assay). Type of assay: biochemical. The conditions noted are these: CDK4/CyclinD1, 200 μM ATP. The procedure, abridged: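 IC50 was obtained by 4-parameter sigmoidal fitting after 1 nM CDK4/CyclinD1, 200 μM ATP and 1 μM FL-34 substrate reacted for 3 h at room temperature (pH 7.5 HEPES, 10 mM MgCl2). After EDTA quench, substrate and product were separated and detected on a Caliper microfluidic chip.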

For assay [3], the system named is T47D breast cancer cells. As to the kind of experiment: Anti-proliferation assay in T47D cell (Cyquant, day 6). Type of assay: cell-based, human. The note with it: Homo sapiens, T47D, read-out: T47D IC50. In outline: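 A ten-point, 3-fold compound series (10 μM down to 0.51 nM) was applied to overnight-settled cells in 10% FBS RPMI 1640, and DNA content was read by CyQuant fluorescence 6 days later. An untreated plate read before dosing served as baseline for subtraction before IC50 fitting.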

For assay [4], the target named is T3, CDK2/CyclinE1 (Homo sapiens, UniProt P24941).
T3 construct: purchased SignalChem C29-18G
As to the kind of experiment: Assay for inhibition of CDK2/CyclinE1 (Caliper microfluidic kinase assay). Type of assay: biochemical. The conditions noted are these: CDK2/CyclinE1, 100 μM ATP; read-out: CDK2 IC50. The procedure, abridged:
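IC50 came from 4-parameter fits of substrate-to-product conversion, separated on a Caliper chip after an EDTA stop. Reactions ran 3 hours at room temperature with 100 μM ATP, 5 μM fluorescent FL-18 peptide and 5 nM enzyme in 100 mM HEPES pH 7.5, 10 mM MgCl2.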

The test system of assay [5] is phosphorylation of Retinoblastoma Protein (pRb Ser807/811 or Ser780) in T47D cells. As to the kind of experiment: Inhibition of phosphorylation of retinoblastoma protein (pRb) in T47D cell (ELISA). The format is cell-based, human. The conditions noted are these: Homo sapiens, T47D, read-out: Phospho T47D Ser807 IC50, pRb Ser807 phosphorylation, T47D cells. The procedure, abridged: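 T47D cells in RPMI 1640 + 10% FBS, adhered overnight, then treated 24 h with 3-fold compound titrations (top concentration […]). Lysates assayed by sandwich ELISA for pRb Ser807/811 or Ser780 with HRP/TMB detection. IC50 from 4-parameter sigmoidal fit.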
For orientation: ELISA stands for enzyme-linked immunosorbent assay.

T2 sequence (P11802 whole entry): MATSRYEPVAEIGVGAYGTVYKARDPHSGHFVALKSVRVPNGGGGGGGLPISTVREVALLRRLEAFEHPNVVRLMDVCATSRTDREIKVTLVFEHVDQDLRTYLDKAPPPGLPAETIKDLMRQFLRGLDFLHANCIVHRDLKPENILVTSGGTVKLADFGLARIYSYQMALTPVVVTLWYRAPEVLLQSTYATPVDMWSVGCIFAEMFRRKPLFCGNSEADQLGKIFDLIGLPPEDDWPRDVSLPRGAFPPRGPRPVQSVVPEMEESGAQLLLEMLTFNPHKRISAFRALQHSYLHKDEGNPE
T2 sequence (P24385 whole entry partner): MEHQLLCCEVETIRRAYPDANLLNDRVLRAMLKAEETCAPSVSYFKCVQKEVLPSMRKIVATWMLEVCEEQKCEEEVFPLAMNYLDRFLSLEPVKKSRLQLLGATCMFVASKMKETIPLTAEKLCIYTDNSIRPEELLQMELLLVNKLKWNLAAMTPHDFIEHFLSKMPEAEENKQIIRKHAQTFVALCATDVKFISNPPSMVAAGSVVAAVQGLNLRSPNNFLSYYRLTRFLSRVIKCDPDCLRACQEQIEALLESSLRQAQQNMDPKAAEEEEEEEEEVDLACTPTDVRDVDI
T1 sequence (Q00534 whole entry): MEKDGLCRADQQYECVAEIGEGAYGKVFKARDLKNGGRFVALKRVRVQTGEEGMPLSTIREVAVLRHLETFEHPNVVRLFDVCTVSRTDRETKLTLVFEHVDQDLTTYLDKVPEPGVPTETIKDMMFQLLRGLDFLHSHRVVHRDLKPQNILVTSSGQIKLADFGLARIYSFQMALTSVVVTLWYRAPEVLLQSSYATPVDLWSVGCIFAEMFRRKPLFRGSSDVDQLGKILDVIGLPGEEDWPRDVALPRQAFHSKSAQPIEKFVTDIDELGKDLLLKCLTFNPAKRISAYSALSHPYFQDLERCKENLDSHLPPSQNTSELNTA
T1 sequence (P30281 whole entry partner): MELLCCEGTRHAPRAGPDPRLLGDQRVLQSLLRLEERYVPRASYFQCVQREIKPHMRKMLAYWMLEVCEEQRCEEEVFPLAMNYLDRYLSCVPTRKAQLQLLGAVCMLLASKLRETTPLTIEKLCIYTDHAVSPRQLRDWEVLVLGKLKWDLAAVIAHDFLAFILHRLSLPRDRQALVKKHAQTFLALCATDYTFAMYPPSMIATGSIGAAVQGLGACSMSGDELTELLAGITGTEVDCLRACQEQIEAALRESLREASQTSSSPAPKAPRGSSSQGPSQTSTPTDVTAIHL

In the case of `CC(C)c1cnn2ccc(-c3nc(Nc4ccc(N5CCN(C6COC6)CCC5=O)cn4)ncc3F)cc12` [Synthetic Example 43], the IC50 (as a rule, the concentration at which inhibition is half-maximal) in assay [1] was 10 to 100 nM; in assay [2] it was less than 10 nM; in assay [3] (anti-proliferation, T47D cells) it was less than 100 nM; in assay [4], 10 to 100 nM; in assay [5], less than 100 nM.

As for `CC(C)n1cnc2c1CN(c1ccnc(Nc3ccc(N4CCOCC4=O)cn3)n1)CC2` [Synthetic Example 57], the IC50 is 100 to 1000 nM in assay [1]; less than 10 nM in assay [2]; 100 to 500 nM in assay [3] (anti-proliferation, T47D cells); 10 to 100 nM in assay [4]; less than 100 nM in assay [5].

As for `CC1(C)COc2c(F)cc(-c3ccnc(Nc4ccc(N5CCNCC5=O)cn4)n3)cc21` [Synthetic Example 59], the IC50 in assay [1] was 10 to 100 nM; in assay [2], less than 10 nM; in assay [3] (anti-proliferation, T47D cells), less than 100 nM; in assay [4] it was 10 to 100 nM; in assay [5], less than 100 nM.

For `CC(C)n1cnc2c(F)nc(-c3ccnc(Nc4ccc(N5CCOCC5=O)cn4)n3)cc21` [Synthetic Example 61], the 50% inhibitory concentration (IC50) in assay [1] is 10 to 100 nM; in assay [2], less than 10 nM; in assay [3] (anti-proliferation, T47D cells), less than 100 nM; in assay [4] it was 10 to 100 nM; in assay [5], less than 100 nM.

For `COc1nc(-c2nc(Nc3ccc(N4CCC(N(C)C)CC4=O)cn3)ncc2F)cc2c1nc(C)n2C(C)C` (centres unmarked) [Synthetic Example 62, 4-(dimethylamino)-1-[6-[[5-fluoro-4-(1-isopropyl-4-methoxy-2-methyl-imidazo[4,5-c]pyridin-6-yl)pyrimidin-2-yl]amino]-3-pyridyl]piperidin-2-one], the IC50 in assay [1] was 10 to 100 nM; in assay [2] it was less than 10 nM; in assay [3] (anti-proliferation, T47D cells), less than 100 nM; in assay [4], greater than 1000 nM; in assay [5] it was less than 100 nM.

`COc1nc(-c2nc(Nc3ccc(N4CCNCC4)cn3)ncc2F)cc2c1nc(C)n2C(C)C` [Synthetic Example 106]: the IC50 in assay [1] is 10 to 100 nM; in assay [2], less than 10 nM; in assay [3] (anti-proliferation, T47D cells), 100 to 500 nM; in assay [4], greater than 1000 nM; in assay [5] it was less than 100 nM.

As to `COc1nc(-c2nc(Nc3ccc(N4CCN(S(C)(=O)=O)CC4=O)cn3)ncc2F)cc2c1nc(C)n2C(C)C` [Synthetic Example 127], the IC50 in assay [1] was 10 to 100 nM; in assay [2], less than 10 nM; in assay [3] (anti-proliferation, T47D cells), 100 to 500 nM; in assay [4], 100 to 1000 nM; in assay [5], 100 to 500 nM.

`CCN1CCN(c2ccc(Nc3ncc(F)c(-c4cc5c(nc(C)n5C(C)C)c(OC)n4)n3)nc2)C(=O)C1` [Synthetic Example 128]: the IC50 was 10 to 100 nM in assay [1]; less than 10 nM in assay [2]; 100 to 500 nM in assay [3]; greater than 1000 nM in assay [4]; less than 100 nM in assay [5].

For `CN(C)C1CCN(c2ccc(Nc3nccc(-c4ccn5ncc(C(C)(C)C)c5c4)n3)nc2)C(=O)C1` (centres unmarked) [Synthetic Example 175], the IC50 in assay [1] was less than 10 nM; in assay [2], less than 10 nM; in assay [3] (anti-proliferation, T47D cells), less than 100 nM; in assay [4], less than 10 nM; in assay [5], less than 100 nM.

As to `CNC1CCN(c2ccc(Nc3nccc(-c4ccn5ncc(C(C)C)c5c4)n3)nc2)C(=O)C1` (centres unmarked) [Synthetic Example 204, 1-[6-[[4-(3-isopropylpyrazolo[1,5-a]pyridin-5-yl)pyrimidin-2-yl]amino]-3-pyridyl]-4-(methylamino)piperidin-2-one], the IC50 in assay [1] is less than 10 nM; in assay [2], less than 10 nM; in assay [3] (anti-proliferation, T47D cells), less than 100 nM; in assay [4] it was less than 10 nM; in assay [5], less than 100 nM.

Consider `Cc1nc2c(F)nc(-c3ccnc(Nc4ccc(N5CCCC(N(C)C)C5=O)cn4)n3)cc2n1C(C)C` (centres unmarked) [Synthetic Example 301, 3-(dimethylamino)-1-[6-[[4-(4-fluoro-1-isopropyl-2-methyl-imidazo[4,5-c]pyridin-6-yl)pyrimidin-2-yl]amino]-3-pyridyl]piperidin-2-one], for which the IC50 in assay [1] is less than 10 nM; in assay [2], less than 10 nM; in assay [3] (anti-proliferation, T47D cells) it was less than 100 nM; in assay [4], greater than 1000 nM; in assay [5], less than 100 nM.

As for `CC(C)c1cnn2ccc(-c3nc(Nc4ccc(N5CCC(N(C)C)CC5=O)cn4)ncc3F)cc12` (centres unmarked) [compound 3], the 50% inhibitory concentration (IC50) was 10 to 100 nM in assay [1]; less than 10 nM in assay [2]; less than 100 nM in assay [3] (anti-proliferation, T47D cells); 10 to 100 nM in assay [4]; less than 100 nM in assay [5].

As for `CC(C)c1cnn2ccc(-c3nc(Nc4ccc(N5CCOCC5=O)cc4F)ncc3F)cc12` [compound 7], the IC50 in assay [1] is 10 to 100 nM; in assay [2], less than 10 nM; in assay [3] (anti-proliferation, T47D cells), 100 to 500 nM; in assay [4] it was less than 10 nM; in assay [5], 100 to 500 nM.

With `CC(C)c1cnn2ccc(-c3nc(Nc4ccc(N5CCOCC5=O)cc4)ncc3F)cc12` [compound 25], the IC50 in assay [1] is 10 to 100 nM; in assay [2] it was less than 10 nM; in assay [3] (anti-proliferation, T47D cells), less than 100 nM; in assay [4], less than 10 nM; in assay [5] it was less than 100 nM.

In the case of `CC(C)c1cnn2ccc(-c3nc(Nc4ccc(N5CCOCC5=O)c(F)c4)ncc3F)cc12` [compound 26], the IC50 in assay [1] is 10 to 100 nM; in assay [2], less than 10 nM; in assay [3] (anti-proliferation, T47D cells), 100 to 500 nM; in assay [4] it was less than 10 nM; in assay [5] it was less than 100 nM.

As to `CC(C)c1cnn2ccc(-c3nc(Nc4ccc(S(N)(=O)=O)cc4)ncc3F)cc12` [compound 27], the IC50 is 100 to 1000 nM in assay [1]; 10 to 100 nM in assay [2]; less than 100 nM in assay [3] (anti-proliferation, T47D cells); less than 10 nM in assay [4]; 100 to 500 nM in assay [5].

For `CC(C)c1cnn2ccc(-c3ccnc(Nc4ccc(N5CCOCC5=O)cn4)n3)cc12` [compound 28], the half-inhibitory concentration (IC50) in assay [1] was 10 to 100 nM; in assay [2] it was less than 10 nM; in assay [3] (anti-proliferation, T47D cells), less than 100 nM; in assay [4], less than 10 nM; in assay [5], less than 100 nM.

As for `CC(C)c1cnn2ccc(-c3ccnc(Nc4ccc(N5CCCNCC5=O)cn4)n3)cc12` [compound 30], the concentration for half-maximal inhibition (IC50) in assay [1] was 10 to 100 nM; in assay [2], less than 10 nM; in assay [3] (anti-proliferation, T47D cells), 100 to 500 nM; in assay [4] it was 10 to 100 nM; in assay [5] it was less than 100 nM.

With `CC(C)c1cnn2cc(-c3ccnc(Nc4ccc(N5CCNCCC5=O)cn4)n3)ccc12` [compound 31], the IC50 in assay [1] was 10 to 100 nM; in assay [2] it was less than 10 nM; in assay [3] (anti-proliferation, T47D cells), less than 100 nM; in assay [4], 10 to 100 nM; in assay [5], less than 100 nM.

`CC(C)c1cnn2ccc(-c3nc(Nc4ccc(N5CCCNCC5=O)cn4)ncc3F)cc12` [compound 33]: the 50% inhibitory concentration (IC50) in assay [1] is 10 to 100 nM; in assay [2], less than 10 nM; in assay [3] (anti-proliferation, T47D cells), less than 100 nM; in assay [4], 10 to 100 nM; in assay [5] it was less than 100 nM.

Regarding `CC(C)c1cnn2ccc(-c3nc(Nc4ccc(N5CCNCCC5=O)cn4)ncc3F)cc12` [compound 34], the IC50 in assay [1] was 10 to 100 nM; in assay [2], less than 10 nM; in assay [3] (anti-proliferation, T47D cells) it was less than 100 nM; in assay [4], 10 to 100 nM; in assay [5], less than 100 nM.

As to `CC(C)c1cnn2ccc(-c3ccnc(Nc4ccc(N5CCNCC5=O)cn4)n3)cc12` [compound 37], the IC50 is 10 to 100 nM in assay [1]; less than 10 nM in assay [2]; less than 100 nM in assay [3] (anti-proliferation, T47D cells); less than 10 nM in assay [4]; less than 100 nM in assay [5].

`CC(C)c1cnn2ccc(-c3ccnc(Nc4ccc(N5CCN(C6CCNCC6)CC5=O)cn4)n3)cc12` [compound 41]: the IC50 in assay [1] is 10 to 100 nM; in assay [2], less than 10 nM; in assay [3] (anti-proliferation, T47D cells), less than 100 nM; in assay [4] it was 10 to 100 nM; in assay [5] it was less than 100 nM.

With `CC(C)c1cnn2ccc(-c3nc(Nc4ccc(N5CCN(C6CNC6)CCC5=O)cn4)ncc3F)cc12` [compound 42], the half-inhibitory concentration (IC50) in assay [1] was 10 to 100 nM; in assay [2], less than 10 nM; in assay [3] (anti-proliferation, T47D cells), less than 100 nM; in assay [4], 10 to 100 nM; in assay [5], less than 100 nM.

With `CCN1CCC(Cn2ccc(Nc3ncc(F)c(-c4ccn5ncc(C(C)C)c5c4)n3)cc2=O)CC1` [compound 44], the IC50 is 10 to 100 nM in assay [1]; less than 10 nM in assay [2]; greater than 1000 nM in assay [3] (anti-proliferation, T47D cells); 100 to 1000 nM in assay [4]; 500 to 1000 nM in assay [5].
